Legend:
HIV integrase = HIV integrase (Human immunodeficiency virus type 1 group M subtype B, UniProt P04585); assay: integrase strand transfer assay (STA); assay type: biochemical; conditions: integrase strand transfer; read-out: IC50 in the STA assay
HXB2 virus = assay: microbe, parasite or virus in culture; assay type: cell-based, HIV; conditions: Human immunodeficiency virus 1, HXB2, HeLaP4-2, read-out: antiviral IC50 (SCIA-B)
Summary of the method: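 HXB2 virus used to infect HeLa P4-2 cells in a single-cycle format; inhibition of acute infection is measured.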

Compound | IC50 (HIV integrase) | IC50 (HXB2 virus)
O=c1cc(-c2ccc(-c3ccn[nH]3)cc2)c2cccnc2n1O [Example 188, 1-hydroxy-4-[4-(1H-pyrazol-5-yl)phenyl]-1,8-naphthyridin-2(1H)-one] | < 50 µM | < 100 µM
CS(=O)(=O)NCc1ccc(-c2cc(=O)n(O)c3ncccc23)cc1 [Example 189, N-[4-(1-hydroxy-2-oxo-1,2-dihydro-1,8-naphthyridin-4-yl)benzyl]methanesulfo-namide] | < 50 µM | < 100 µM
NCc1cccc(-c2cncc(-c3cc(=O)n(O)c4ncccc34)c2)c1 [Example 190, 4-{5-[3-(aminomethyl)phenyl]pyridin-3-yl}-1-hydroxy-1,8-naphthyridin-2(1H)one] | < 50 µM | < 100 µM
CC(=O)c1cccc(-c2cccc(-c3cc(=O)n(O)c4ncccc34)c2)c1 [Example 191, 4-(3′-acetylbiphenyl-3-yl)-1-hydroxy-1,8-naphthyridin-2(1H)-one] | < 50 µM | < 100 µM
NS(=O)(=O)c1cccc(-c2cc(=O)n(O)c3ncccc23)c1 [Example 192, 3-(1-hydroxy-2-oxo-1,2-dihydro-1,8-naphthyridin-4-yl)benzenesulfonamide] | < 50 µM | < 100 µM
CNS(=O)(=O)c1cccc(-c2cc(=O)n(O)c3ncccc23)c1 [Example 193, 3-(1-hydroxy-2-oxo-1,2-dihydro-1,8-naphthyridin-4-yl)-N-methylbenzenesulfona-mide] | < 50 µM | < 100 µM
CC(=O)Nc1cccc(-c2cc(=O)n(O)c3ncccc23)c1 [Example 194, N-[3-(1-hydroxy-2-oxo-1,2-dihydro-1,8-naphthyridin-4-yl)phenyl]acetamide] | < 50 µM | < 100 µM
O=C(c1cccc(-c2cc(=O)n(O)c3ncccc23)c1)N1CCCC1 [Example 195, 1-hydroxy-4-[3-(pyrrolidin-1-ylcarbonyl)phenyl]-1,8-naphthyridin-2(1H)-one] | < 50 µM | < 100 µM
NC(=O)c1cccc(-c2cc(=O)n(O)c3ncccc23)c1 [Example 196, 3-(1-hydroxy-2-oxo-1,2-dihydro-1,8-naphthyridin-4-yl)benzamide] | < 50 µM | < 100 µM
O=c1cc(-c2cncnc2)c2cccnc2n1O [Example 197, 1-hydroxy-4-pyrimidin-5-yl-1,8-naphthyridin-2(1H)-one] | < 50 µM | < 100 µM
O=c1cc(-c2ccn[nH]2)c2cccnc2n1O [Example 198, 1-hydroxy-4-(1H-pyrazol-5-yl)-1,8-naphthyridin-2(1H)-one] | < 50 µM | < 100 µM
CS(=O)(=O)c1cccc(-c2cc(=O)n(O)c3ncccc23)c1 [Example 199, 1-hydroxy-4-[3-(methylsulfonyl)phenyl]-1,8-naphthyridin-2(1H)-one] | < 50 µM | < 100 µM
O=c1cc(-c2ccc(NCCN3CCOCC3)nc2)c2cccnc2n1O [Example 200, 1-hydroxy-4-{6-[(2-morpholin-4-ylethyl)amino]pyridin-3-yl}-1,8-naphthyridin-2(1H)-one] | < 50 µM | < 100 µM
CS(=O)(=O)Nc1ccccc1-c1cc(=O)n(O)c2ncccc12 [Example 201, N-[2-(1-hydroxy-2-oxo-1,2-dihydro-1,8-naphthyridin-4-yl)phenyl]methanesulfo-namide] | < 50 µM | < 100 µM
N#Cc1cccc(-c2cccc(-c3cc(=O)n(O)c4ncccc34)c2)c1 [Example 202, 3′-(1-hydroxy-2-oxo-1,2-dihydro-1,8-naphthyridin-4-yl)biphenyl-3-carbonitrile] | < 50 µM | < 100 µM
O=c1cc(-c2ccncc2)c2cccnc2n1O [Example 203, 1-hydroxy-4-pyridin-4-yl-1,8-naphthyridin-2(1H)-one] | < 50 µM | < 100 µM
NCc1cccc(-c2cccc(-c3cc(=O)n(O)c4ncccc34)c2)c1 [Example 204, 4-[3′-(aminomethyl)biphenyl-3-yl]-1-hydroxy-1,8-naphthyridin-2(1H)-one] | < 50 µM | < 100 µM
O=c1cc(-c2cccc(-c3cccc(CNCc4ccccc4)c3)c2)c2cccnc2n1O [Example 205, 4-{3′-[(benzylamino)methyl]biphenyl-3-yl}-1-hydroxy-1,8-naphthyridin-2(H)-one] | < 50 µM | < 100 µM
O=c1cc(-c2cccc(CN3CCN(Cc4ccccc4)CC3)c2)c2cccnc2n1O [Example 206, 4-{3-[(4-benzyl-1-piperazinyl)methyl]phenyl}-1-hydroxy-1,8-naphthyridin-2(1H-one)] | < 50 µM | < 100 µM
O=c1cc(-c2cccc(CN3CCN(C(c4ccccc4)c4ccc(Cl)cc4)CC3)c2)c2cccnc2n1O (stereo not drawn) [Example 207] | < 50 µM | < 100 µM

Compound | IC50 (HIV integrase) | IC50 (HXB2 virus)
O=C(CN1CCN(Cc2cccc(-c3cc(=O)n(O)c4ncccc34)c2)CC1)N1CCCC1 [Example 208, 1-hydroxy-4-[3-({4-[2-oxo-2-(1-pyrrolidinyl)ethyl]-1-piperazinyl}methyl)phenyl]-1,8-naphthyridin-2(1H-one)] | < 50 µM | < 100 µM
CN(C)C(=O)CNCc1cccc(-c2cc(=O)n(O)c3ncccc23)c1 [Example 209, 2-{[3-(1-hydroxy-2-oxo-1,2-dihydro-1,8-naphthyridin-4-yl)benzyl]amino}-N,N-dimethylacetamide] | < 50 µM | < 100 µM
CC(c1ccccc1)N1CCN(Cc2cccc(-c3cc(=O)n(O)c4ncccc34)c2)CC1 (stereo not drawn) [Example 210, 1-hydroxy-4-(3-{[4-(1-phenylethyl)-1-piperazinyl]methyl}phenyl)-1,8-naphthyridin-2(1H-one)] | < 50 µM | < 100 µM
O=C(CN1CCN(Cc2cccc(-c3cc(=O)n(O)c4ncccc34)c2)CC1)N1CCOCC1 [Example 211, 1-hydroxy-4-[3-({4-[2-(4-morpholinyl)-2-oxoethyl]-1-piperazinyl}methyl)phenyl]-1,8-naphthyridin-2(1H-one)] | < 50 µM | < 100 µM
CN(C)CCCN1CCN(Cc2cccc(-c3cc(=O)n(O)c4ncccc34)c2)CC1 [Example 212, 4-[3-({4-[3-(dimethylamino)propyl]-1-piperazinyl}methyl)phenyl]-1-hydroxy-1,8-naphthyridin-2(1H-one)] | < 50 µM | < 100 µM
CC(=O)N1CCN(Cc2cccc(-c3cc(=O)n(O)c4ncccc34)c2)CC1 [Example 213, 4-{3-[(4-acetyl-1-piperazinyl)methyl]phenyl}-1-hydroxy-1,8-naphthyridin-2(1H-one)] | < 50 µM | < 100 µM
CN(C(=O)c1c(O)c2cccnc2n(O)c1=O)C1CCNC1 (stereo not drawn) [Example 215, 1,4-Dihydroxy-N-methyl-2-oxo-N-pyrrolidin-3-yl-1,2-dihydro-1,8-naphthyridine-3-carboxamide] | < 50 µM | < 100 µM
CN1C(=O)c2c(c3cccnc3n(O)c2=O)NC1c1ccccc1 (stereo not drawn) [Example 216, 6-Hydroxy-3-methyl-2-phenyl-2,3-dihydropyrimido[5,4-c]-1,8-naphthyridine-4,5(1H, 6H)-dione] | < 50 µM | < 100 µM
CN1C(=O)c2c(c3cccnc3n(O)c2=O)NC1c1ccccc1-c1ccccc1 (stereo not drawn) [Example 217, 2-Biphenyl-2-yl-6-hydroxy-3-methyl-2,3-dihydropyrimido[5,4-c]-1,8-naphthyridine-4,5(1H, 6H)dione] | < 50 µM | < 100 µM
CN1C(=O)c2c(c3cccnc3n(O)c2=O)NC1c1cccc(Oc2ccccc2)c1 (stereo not drawn) [Example 218, 6-Hydroxy-3-methyl-2-(3-phenoxyphenyl)-2,3-dihydropyrimido[5,4-c]-1,8-naphthyridine-4,5(1H, 6H)dione] | < 50 µM | < 100 µM
CN1C(=O)c2c(c3cccnc3n(O)c2=O)NC1c1cccc(CN2CCOCC2)c1 (stereo not drawn) [Example 219, 6-Hydroxy-3-methyl-2-[3-(morpholin-4-ylmethyl)phenyl]-2,3-dihydropyrimido[5,4-c]-1,8-naphthyridine-4,5(1H, 6H)dione] | < 50 µM | < 100 µM
CN1C(=O)c2c(c3cccnc3n(O)c2=O)NC1c1cccc(CN)c1 (stereo not drawn) [Example 220, 2-[3-(Aminomethyl)phenyl]-6-hydroxy-3-methyl-2,3-dihydropyrimido[5,4-c]-1,8-naphthyridine-4,5(1H, 6H)dione] | < 50 µM | < 100 µM
CNC(=O)c1c(N)c2cccnc2n(O)c1=O [Example 221, 4-Amino-1-hydroxy-N-methyl-2-oxo-1,2-dihydro-1,8-naphthyridine-3-carboxamide] | < 50 µM | < 100 µM
CCOC(=O)Cc1c(O)c2cccnc2n(O)c1=O [Example 223, Ethyl (1,4-dihydroxy-2-oxo-1,2-dihydro-1,8-naphthyridin-3-yl)acetate] | < 50 µM | < 100 µM
NCc1cccc(CNC(=O)Cc2c(O)c3cccnc3n(O)c2=O)c1 [Example 224] | < 50 µM | < 100 µM
O=c1cc(O)c2c(-c3cccc(O)c3)ccnc2n1O [Example 226, 1,4-dihydroxy-5-(3-hydroxyphenyl)-1,8-naphthyridin-2(1H)-one] | < 50 µM | < 100 µM
NCc1cccc(-c2cccc(-c3ccnc4c3c(O)cc(=O)n4O)c2)c1 [Example 227, 5-[3′-(aminomethyl)biphenyl-3-yl]-1,4-dihydroxy-1,8-naphthyridin-2-(1H)-one] | < 50 µM | < 100 µM
NCc1ccc(-c2cccc(-c3ccnc4c3c(O)cc(=O)n4O)c2)cc1 [Example 228, 5-[4′-(aminomethyl)biphenyl-3-yl]-1,4-dihydroxy-1,8-naphthyridin-2(1H)-one] | < 50 µM | < 100 µM
Cc1cc(C)n(-c2cccc(-c3ccnc4c3c(O)cc(=O)n4O)c2)n1 [Example 229, 5-[3-(3,5-dimethyl-1H-pyrazol-1-yl)phenyl]-1,4-dihydroxy-1,8-naphthyridin-2(1H)-one] | < 50 µM | < 100 µM
